This is an account of results in patent US9802942B2, “Substituted 4-methyl-pyrrolo[1,2-A]pyrimidine-8-carboxamide compounds and uses thereof for modulating glucocerebrosidase activity” (Northwestern University, priority 2015, dated 2017).

In the first test the target is T1, glucocerebrosidase (GCase), recombinant wt. enzyme velaglucerase alfa (Homo sapiens, UniProt P04062).
T1 construct: purchased Shire Human Genetic Therapies, Inc. Vpriv
T1 sequence (P04062 40-536): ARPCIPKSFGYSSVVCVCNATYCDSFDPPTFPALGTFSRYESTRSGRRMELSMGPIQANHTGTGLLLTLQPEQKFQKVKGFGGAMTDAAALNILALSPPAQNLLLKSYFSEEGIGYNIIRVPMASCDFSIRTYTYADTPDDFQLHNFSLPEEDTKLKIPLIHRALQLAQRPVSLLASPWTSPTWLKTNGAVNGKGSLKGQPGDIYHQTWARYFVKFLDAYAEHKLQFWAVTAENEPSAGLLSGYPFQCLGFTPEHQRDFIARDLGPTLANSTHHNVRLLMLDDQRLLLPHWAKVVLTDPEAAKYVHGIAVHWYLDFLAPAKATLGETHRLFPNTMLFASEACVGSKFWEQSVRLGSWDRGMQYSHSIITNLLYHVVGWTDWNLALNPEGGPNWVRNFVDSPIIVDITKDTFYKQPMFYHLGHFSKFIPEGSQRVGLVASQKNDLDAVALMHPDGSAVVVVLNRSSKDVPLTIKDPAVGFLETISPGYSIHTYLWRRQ
Description: Glucocerebrosidase activity assay with blue substrate (4MU-Glc). The note with it: Table 1. Type of test: biochemical. On the procedure:
The compounds in DMSO solution 0.5 μL/well were transferred to a black 96-well plate (the final titration was 24 nM to 50 μM, 12 concentrations, 2 times dilution). 33.5 μL enzyme solution (7.5 nM final concentration) was transferred to the wells. After 5 min of incubation at room temperature, the enzyme reaction was initiated by the addition of 33 μL/well blue substrate or 66.5 μL/well red substrate. Final concentrations of the blue substrate (4MU-Glc) and red substrate (Res-Glc) were 1.5 mM and 30 μM, respectively. The red substrate reaction was measured in the Biotek Synergy H1 multi-mode plate reader with Ex=573 nm and Em=610 nm at 37° C. every 20 sec for 30 min. The blue substrate reaction was terminated by the addition of 33 μL/well stop solution (1 M NaOH and 1 M glycine mixture, pH 10) after 30 min of incubation at 37° C. The fluorescence was then measured in the plate reader at Ex=365 nm and Em=440 nm.
The recombinant wt. enzyme velaglucerase alfa (Vpriv®, Shire Human Genetic Therapies, Inc.) was obtained from residual solution after clinical infusions. The GCase activity assay buffer was composed of 50 mM citric acid, 176 mM K2HPO4, and 0.01% Tween-20 at pH 5.9. A solution of 1 M sodium hydroxide and 1 M glycine was used as the stop solution for the 4MU-β-glc substrate assay.
The compounds in DMSO solution 0.5 μL/well was transferred to a black 96-well plate (the final titration was 24 nM to 50 μM, 12 concentrations). 33.5 μL enzyme solution (7.5 nM final concentration) was transferred to the wells. After 5 min of incubation at room temperature, the enzyme reaction was initiated by the addition of 33 μL/well 4MU-Glc substrate or 66.5 μL/well red substrate. Final concentrations of the 4MU-Glc substrate and Res-Glc substrate were 1.5 mM and 30 μM, respectively. The red substrate reaction was measured in the Biotek Synergy H1 multi-mode plate reader with Ex=573 nm and Em=610 nm at 37° C. in every 20 seconds for 30 min. The 4MU-Glc substrate reaction was terminated by the addition of 33 μL/well stop solution (1 M NaOH and 1 M glycine mixture, pH 10) after 30 min of incubation at 37° C. The fluorescence was then measured in the plate reader with Ex=365 nm and Em=440 nm.
As for `COc1ccc2nc(NC(=O)c3ccn4c(C)cc(C)nc34)sc2c1` [compound 47], the “Activator / Inhibitor (word in Ac50 cell)” value (“Activator / Inhibitor” below) is reported as “Inhibitor”.
The same measure, in the same setting: for `Cc1cc(C)n2ccc(C(=O)Nc3ccc(-c4cn(CCCCC(=O)O)nn4)cc3)c2n1` [compound 57] the value was “Activator”; for `Cc1cc(C)n2ccc(C(=O)Nc3ccc(-c4cn(CCCCCCC(=O)O)nn4)cc3)c2n1` [compound 58], “Activator”; for `Cc1cc(C)n2ccc(C(=O)Nc3ccc(-c4cn(CCCCCCCCC(=O)O)nn4)cc3)c2n1` [compound 59], “Activator”.
Take `Cc1cc(C)n2ccc(C(=O)Nc3ccc(-c4cn(CCCCC(=O)ON5C(=O)CCC5=O)nn4)cc3)c2n1` [compound 60]: the “Activator / Inhibitor” value is listed as “Activator”.
`Cc1cc(C)n2ccc(C(=O)Nc3ccc(-c4cn(CCCCCCCCC(=O)ON5C(=O)CCC5=O)nn4)cc3)c2n1` [compound 62]: the “Activator / Inhibitor” value is listed as “Activator”.

The same test, now with this note: Table 1; titration 24 nM to 50 μM; substrate not given; read-out: Ac50.
As usually defined, the AC50 is the concentration at which the activity in the assay is half-maximal. On to `C#Cc1ccc(NC(=O)c2ccn3c(C)cc(C)nc23)cc1` [compound 1], for which the AC50 was determined as 0.14 µM.
Same read-out and setting: for `Cc1cc(C)n2ccc(C(=O)Nc3ccc(C(F)(F)F)cc3)c2n1` [compound 5] the value was 0.8 µM; for `Cc1cc(C)n2ccc(C(=O)Nc3ccc(CN4CCOCC4)cc3)c2n1` [compound 7], 112 µM.
On the same count and under the same terms, for `Cc1cc(C)n2ccc(C(=O)Nc3ccc(CN4CCN(C)CC4)cc3)c2n1` [compound 8] the value was 39.8 µM; for `Cc1cc(C)n2ccc(C(=O)Nc3ccc(CN4CCCCC4)cc3)c2n1` [compound 9], 70.8 µM.
On to `Cc1cc(C)n2ccc(C(=O)Nc3ccc(N4CCN(C)CC4)cc3)c2n1` [compound 10], for which the AC50 came to 7.08 µM.
The same measure, in the same setting: for `CCN1CCN(c2ccc(NC(=O)c3ccn4c(C)cc(C)nc34)cc2)CC1` [compound 11] the value was 31.6 µM; for `Cc1cc(C)n2ccc(C(=O)Nc3ccc(N4CCN(Cc5ccccc5)CC4)cc3)c2n1` [compound 12], 5.01 µM; for `Cc1cc(C)n2ccc(C(=O)Nc3ccc(Cc4ccccc4)cc3)c2n1` [compound 13], 0.79 µM.
The same measure, in the same setting: for `Cc1cc(C)n2ccc(C(=O)Nc3ccc(CCN4CCOCC4)cc3)c2n1` [compound 14] the value was 31.6 µM; for `Cc1cc(C)n2ccc(C(=O)Nc3ccc(CCN4CCCCC4)cc3)c2n1` [compound 15], 39.8 µM.
Same read-out and setting: for `Cc1cc(C)n2ccc(C(=O)Nc3ccc(CCN4CCN(C)CC4)cc3)c2n1` [compound 16] the value was 44.7 µM; for `Cc1cc(C)n2ccc(C(=O)Nc3ccc(N(C)C)cc3)c2n1` [compound 17], 3.55 µM; for `Cc1cc(C)n2ccc(C(=O)Nc3ccc(N4CCCCC4)cc3)c2n1` [compound 18], 1.58 µM.
In the case of `Cc1cc(C)n2ccc(C(=O)Nc3ccc(N4CCOCC4)cc3)c2n1` [compound 19], the AC50 is 1.41 µM.
Same read-out and setting: for `Cc1cc(C)n2ccc(C(=O)Nc3ccc(CN(C)C)cc3)c2n1` [compound 20] the value was 14.1 µM; for `Cc1cc(C)n2ccc(C(=O)Nc3nccc4ccccc34)c2n1` [compound 21], 39.8 µM; for `Cc1cc(C)n2ccc(C(=O)Nc3ccncc3)c2n1` [compound 22], 25.1 µM.
Still for that read-out and setting: for `Cc1cc(C)n2ccc(C(=O)Nc3ccccn3)c2n1` [compound 23] the value was 22.4 µM; for `Cc1cc(C)n2ccc(C(=O)Nc3ccc(-c4ccccc4)cc3)c2n1` [compound 24], 1.41 µM; for `Cc1cc(C)n2ccc(C(=O)Nc3ccc(N4CCCC4)cc3)c2n1` [compound 25], 0.51 µM.
Take `Cc1cc(C)n2ccc(C(=O)Nc3nc4ccccc4[nH]3)c2n1` [compound 26]: the concentration at half-maximal activity (AC50) worked out at 1.26 µM.
On to `Cc1cc(C)n2ccc(C(=O)NC3CCCCC3)c2n1` [compound 27], for which the AC50 was 15.8 µM.
On the same count and under the same terms, for `Cc1cc(C)n2ccc(C(=O)NC3CCc4ccccc43)c2n1` (stereo not shown) [compound 28] the value was 3.98 µM; for `Cc1cc(C)n2ccc(C(=O)NC3Cc4ccccc4C3)c2n1` [compound 29], 2.51 µM; for `Cc1cc(C)n2ccc(C(=O)Nc3ccc(CCO)cc3)c2n1` [compound 30], 2.82 µM.
With `Cc1cc(C)n2ccc(C(=O)Nc3nc4ccccc4s3)c2n1` [compound 31], the half-maximal activity concentration (AC50) came to 0.4 µM.
Still for that read-out and setting: for `Cc1cc(C)n2ccc(C(=O)NC3CCN(Cc4ccccc4)CC3)c2n1` [compound 32] the value was 50 µM; for `Cc1cc(C)n2ccc(C(=O)NC3CCN(C(C)C)CC3)c2n1` [compound 34], 30 µM; for `Cc1cc(C)n2ccc(C(=O)NC3CCN(c4ccccc4)CC3)c2n1` [compound 35], 22.4 µM.
The same measure, in the same setting: for `Cc1cc(C)n2ccc(C(=O)Nc3ccc(-n4ccnc4)cc3)c2n1` [compound 36] the value was 107 µM.
Same read-out and setting: for `Cc1cc(C)n2ccc(C(=O)NC3CCC(N(C)C)CC3)c2n1` (stereo not shown) [compound 37] the value was 40 µM; for `Cc1cc(C)n2ccc(C(=O)Nc3ccc(C#Cc4ccccc4)cc3)c2n1` [compound 38], 0.79 µM.
In the case of `Cc1cc(C)n2ccc(C(=O)Nc3nc4c(s3)CN(C)CC4)c2n1` [compound 39], the half-maximal activity concentration (AC50) stood at 39.8 µM.
The same measure, in the same setting: for `Cc1cc(C)n2ccc(C(=O)Nc3nc4cc(Cl)ccc4s3)c2n1` [compound 41] the value was 39.9 µM.
The same measure, in the same setting: for `Cc1cc(C)n2ccc(C(=O)Nc3nc4cc(F)ccc4s3)c2n1` [compound 42] the value was 50.2 µM; for `Cc1cc(C)n2ccc(C(=O)Nc3nc4c(C)cccc4s3)c2n1` [compound 43], 0.2 µM.
Still for that read-out and setting: for `CCc1nnc(NC(=O)c2ccn3c(C)cc(C)nc23)s1` [compound 44] the value was 22.4 µM; for `Cc1cc(C)n2ccc(C(=O)Nc3ncc4ccccc4n3)c2n1` [compound 45], 35.5 µM.
For `Cc1cc(C)n2ccc(C(=O)Nc3cnn4c(C)cc(C)nc34)c2n1` [compound 46], the concentration at half-maximal activity (AC50) is 0.45 µM.
Still for that read-out and setting: for `Cc1ccc2nc(NC(=O)c3ccn4c(C)cc(C)nc34)sc2c1` [compound 48] the value was 0.2 µM; for `CCCn1cnc(NC(=O)c2ccn3c(C)cc(C)nc23)n1` [compound 49], 39.8 µM.
Same read-out and setting: for `Cc1cc(C)n2ccc(C(=O)Nc3ccc(N4CCC(N(C)C)CC4)cc3)c2n1` [compound 50] the value was 10 µM.
The same measure, in the same setting: for `Cc1cc(C)n2ccc(C(=O)NCc3cccs3)c2n1` [compound 51] the value was 15.8 µM; for `Cc1cc(C)n2ccc(C(=O)Nc3ccc(N=[N+]=[N-])cc3)c2n1` [compound 52], 0.2 µM.
With `Cc1cc(C)n2ccc(C(=O)Nc3ccc(C(=O)c4ccccc4)cc3)c2n1` [compound 53], the half-maximal activity concentration (AC50) is 0.14 µM.
On the same count and under the same terms, for `Cc1cc(C)n2ccc(C(=O)Nc3ccc(Oc4ccccc4)cc3)c2n1` [compound 54] the value was 0.56 µM.
Same read-out and setting: for `Cc1cc(C)n2ccc(C(=O)Nc3ccc(OCCC(=O)O)cc3)c2n1` [compound 56] the value was 15.8 µM; for `Cc1cc(C)n2ccc(C(=O)Nc3ccc(-c4cn(CCCCC(=O)O)nn4)cc3)c2n1` [compound 57], 7.08 µM; for `Cc1cc(C)n2ccc(C(=O)Nc3ccc(-c4cn(CCCCCCC(=O)O)nn4)cc3)c2n1` [compound 58], 1.78 µM.
On the same count and under the same terms, for `Cc1cc(C)n2ccc(C(=O)Nc3ccc(-c4cn(CCCCCCCCC(=O)O)nn4)cc3)c2n1` [compound 59] the value was 1.78 µM.
Consider `Cc1cc(C)n2ccc(C(=O)Nc3ccc(-c4cn(CCCCC(=O)ON5C(=O)CCC5=O)nn4)cc3)c2n1` [compound 60], for which the AC50 was 0.63 µM.
Same read-out and setting: for `Cc1cc(C)n2ccc(C(=O)Nc3ccc(-c4cn(CCCCCCC(=O)ON5C(=O)CCC5=O)nn4)cc3)c2n1` [compound 61] the value was 0.4 µM.
Same read-out and setting: for `Cc1cc(C)n2ccc(C(=O)Nc3ccc(-c4cn(CCCCCCCCC(=O)ON5C(=O)CCC5=O)nn4)cc3)c2n1` [compound 62] the value was 0.45 µM.
Consider `Cc1cc(C)n2ccc(C(=O)Nc3ccc(-c4cn(CCN(C)C)nn4)cc3)c2n1` [compound 63], for which the AC50 is 39.8 µM.
